# Data published in patent publication US10829527B2, “Conjugates of islet neogenesis peptides and analogs, and methods thereof” (SHENZHEN HIGHTIDE BIOPHARMACEUTICAL, LTD., priority 2016, dated 2020).
# Experiments:
# [1] = tested on: STZ induced diabetic mice; test: Blood glucose in streptozotocin (STZ) induced diabetic mice model; format: in vivo, C57BL/6J mice; conditions: 250 nM/kg, day 8 of treatment
# Experimental: (§1) After acclimatization in the animal facility for one week, 6-8 weeks old C57BL/6J mice were administered high dose STZ at 150 mg/kg in citrate buffer to establish a T1D animal model. Mice with blood glucose greater than 16.7 mmol/L at 10 days post last STZ injection were included in the study. These mice were then treated with INGAP-PP or GLP-1 or Peptide 2 at the dose of 250 nM/kg for 10 days before sacrifices. One additional group of diabetic mice were administered with saline as model control groups. Blood glucose levels were measured on day 8. Ten days post the last dosing of test agents, an oral glucose tolerance test (OGTT) was performed in 6 hours fasted animals. Blood samples obtained from the tail for glucose determination were detected with an ACCU-CHEK™ glucometer (Roche, ACCU-CHEK® Performa)
# (§2) The blood glucose (BG, mM) present were measured on day 8 of treatment. The area under curve (AUC) of glucose (T0˜120 min) measured in an oral glucose tolerance test (OGTT) on day 10 of treatment.
# pancreatic islets = test: Glucose-stimulated insulin secretion (GSIS) of isolated islets; format: cell-based, C57BL/6J mice; conditions: for Insulin Secretion: 16.7 mM glucose + 10 nM peptide, groups of 5 islets, 60 min incubation; for Insulin release compared with islets cultured without the addition of peptides: 16.7 mM glucose, 10 nM peptide, result in words
# Experimental: The pancreases were procured from male adult C57BL/6J mice. After 7 days acclimation, the animals were sacrificed by cervical dislocation and the entire pancreas was removed and digested with collagenase to isolate islets. After digestion, islets were maintained at 37° C. in RPMI 1640 (Carlsbad Calif., USA) pH 7.4, containing 10% (v/v) fetal calf serum, 1% penicillin/streptomycin, and 10 mM glucose in a humid atmosphere (5% CO2/95% O2), without the addition of any compound (control), or with the addition of 10 nM glucagon like peptide-1 (GLP-1); or 10 nM INGAP-PP; or 10 nM Peptide 1, Peptide 2 or Peptide 3, as summarized in Table 5 below.
# Cultured islets were rinsed in Krebs-Ringer bicarbonate buffer (KRB), pH 7.4, previously gassed with a mixture of CO2/O2 (5/95%), and pre-incubated in 1.0 mL of KRB containing 0.5% (w/v) BSA and 2.8 mM glucose at 37° C. for 45 min. After this period, groups of 5 islets were incubated in 0.6 mL KRB with the addition of 2.8 or 16.7 mM glucose, with or without the addition of peptides for 60 min. At the end of the incubation period, aliquots of the medium were collected for insulin quantitation.
# [2] = tested on: STZ induced diabetic mice; test: Oral glucose tolerance test (OGTT) in STZ induced diabetic mice model; format: in vivo, C57BL/6J mice; conditions: 250 nM/kg, glucose AUC T0~120 min, day 10 of treatment, 6 hours fasted
# Experimental: as §1, §2
Substance,Blood Glucose (Day 8) [1],Insulin Secretion (pancreatic islets),Insulin release compared with islets cultured without the addition of peptides (pancreatic islets),AUC of OGTT (Day 10) [2]
H-IGLHDPSHGTLPNGS-OH (also: D-Isoleucine at 1) [INGAP-PP],25.9 ± 9.1 mM,2.5 ± 1.0 ng/islet/hour,no stimulation,3207.6 ± 801.5
glucagon like peptide-1 [GLP-1],22.1 ± 6.8 mM,5.4 ± 2.1 ng/islet/hour,significantly more insulin,3054.7 ± 728.9
